Entries after “also recorded” stand apart in the source; their conditions may differ.
Columns and labels:
[1] = system: RWPE cells overexpressing SLC45A3-BRAF; assay: Basement membrane matrix invasion assay, RWPE-SLC45A3-BRAF cells; assay type: cell-based, human
Protocol: (§1) For invasion assays, the prostate cell lines RWPE-1 and VCaP were transfected with siRNA or negative controls as indicated. NU7026 (Sigma) and NU1025 (Calbiochem) were dissolved in DMSO and stored at −20° C. in the dark. Forty-eight hours post-transfection/transduction, cells were seeded onto the basement membrane matrix (EC matrix, Chemicon, Temecula, Calif.) in the chamber insert with […] pores of a 24-well culture plate in serum free media. Cells were attracted to the lower chamber by the addition of complete media as a chemoattractant. After 48 hours incubation at 37° C. with 5% CO2, the non-invading cells and EC matrix were gently removed with a cotton swab. Invasive cells, which were located on the lower side of the membrane, were stained with crystal violet, air dried and photographed. To quantify the relative number of invaded cells, colorimetric assays were performed by treating the inserts with 150 μl of 10% acetic acid (v/v) and measuring absorbance of each condition at 560 nm using a spectrophotometer (GE Healthcare).

[2] = system: ERG target genes in VCaP cells; assay: qPCR analysis of ERG-target genes in VCaP cells; assay type: cell-based, human; details: siRNA or drug for 48 hours
Protocol: Total RNA was isolated from VCAP, RWPE or PrEC cells that were transfected with siRNA as indicated (Qiagen). Quantitative PCR (QPCR) was performed using SYBR Green dye on an Applied Biosystems 7300 Real Time PCR system (Applied Biosystems, Foster City, Calif.) as described (Tomlins, S. A., et al. Science (New York, N.Y. 310, 644-648 (2005)). Briefly, 1 μg of total RNA was reverse transcribed into cDNA using SuperScript 111 (Invitrogen, Carlsbad, Calif.) in the presence of random primers (Invitrogen). All reactions were performed in triplicate with SYBR Green Master Mix (Applied Biosystems) plus 25 ng of both the forward and reverse primer according to the manufacturer's recommended thermocycling conditions, and then subjected to melt curve analysis. […] The relative quantity of the target gene was completed for each sample using the ΔΔCt method by the comparing mean Ct of the gene to the average Ct of the housekeeping gene, β-Actin8. […] The primer sequences for the transcript analyzed were either previously described (Tomlins et al., 2008, supra) or are provided in Table 4.
Total RNA was isolated from VCAP, RWPE or PrEC cells that were transfected with siRNA as indicated (Qiagen). […] The relative quantity of the target gene was completed for each sample using the ΔΔCt method by the comparing mean Ct of the gene to the average Ct of the housekeeping gene, β-Actin8. […]

[3] = system: RWPE cells transduced with ERG adenovirus; assay: Basement membrane matrix invasion assay, RWPE cells transduced with ERG adenovirus; assay type: cell-based, human; details: P<0.01 for DNA-PKcs siRNA or NU7026>10 μM, P<0.05 for all PARP1 siRNA, NU1025 or Olaparib treatments
Protocol: as §1

BRCA2 shRNA PC3 cells = assay: Neutral COMET assay, BRCA2 shRNA PC3 cells; assay type: cell-based, human; details: P=0.14 and P=0.003, two-way ANOVA
Protocol: VCaP, PC3, PrEC or RWPE cells were seeded at 250,000 cells/mL in a 6-well plate 24 hours prior to treatment with siRNA, drug or vehicle control. After 48 hours, cells were trypsinized, harvest by centrifugation and re-suspend in PBS. Cell counts were then normalized to 1×10^5 cells/mL. Suspended cells (25 μL) were then mixed with 250 μL 1.0% ultrapure low melting point agarose (Invitrogen) made in 1× Tris-Borate buffer. The agarose-cell mixture was then dropped onto slides allowed to solidify at 4° C. in the dark for 20 minutes before immersion in COMET assay lysis solution (Trevigen, Gaithersburg, Md.) at 4° in the dark for 45 minutes. Excess buffer was then removed and slides were submerged in freshly prepared neutral solution (Tris Base 60.57 g, Sodium Acetate 204.12 g, dissolve in 450 ml of dH2O, adjust to pH=9.0 with glacial acetic acid) at room temperature in the dark for 40 minutes. Slides were then washed twice by immersing in 1×TBE buffer prior to neutral electrophoresis at 20 volts for 30 minutes. Slides were then fixed in 70% ethanol for 5 minutes. […] COMET tail moments were then assessed using COMETscore.v1.5 (AutoCOMET.com, Sumerduck, Va.) image processing software as described by the manufacturer with greater than 100 cells analyzed in triplicate experiments.

LNCaP = assay: CAM xenograft tumor weight, LNCaP; assay type: in vivo, chicken embryo; details: extended Olaparib treatment, P<0.01
Protocol: The CAM assay was performed as described previously (Zijlstra, A., et al., Cancer research 62, 7083-7092 (2002)). Briefly, fertilized eggs were incubated in a rotary humidified incubator at 38° C. with for 10 days. After releasing the CAM by applying mild amount of low pressure to the hole over the air sac and cutting a square 1-cm^2 window encompassing a second hole near the allantoic vein, cultured human cells that had been pre-treated with siRNA as indicated were detached by trypsinization and re-suspended in complete medium prior to implantation of 2×10^6 cells adjacent to the mesenchyme in each egg. The windows were subsequently, sealed and the eggs were returned to a stationary incubator. Cells were then treated as indicated with 40 mg/kg body weight Olaparib which was administered on day 13, 15 and 17. Day 18 embryos were sacrificed. Tumors were then excised and weighed. […] After incubation of either the metastasis or intravasation assays, the extra-embryonic tumor and CAM, as well as the embryonic liver were harvested and analyzed for the presence of tumor cells by quantitative human alu-specific PCR. […] Quantification of human cells in the extracted DNA was done as described^14. Fluorogenic TaqMan qPCR probes were applied as above, and DNA copy numbers were quantified.

O=C(c1cc(Cc2n[nH]c(=O)c3ccccc23)ccc1F)N1CCN(C(=O)C2CC2)CC1 [Olaparib, 4-[3-(4-Cyclopropanecarbonylpiperazine-1-carbonyl)-4-fluorobenzyl]-2H-phthalazin-1-one]
invasion of RWPE SLC45A3-BRAF (negative control) [1]: does now effect invasion | expression of the ERG target genes (qPCR) [2]: confirmed gene expression changes as predicted by the gene expression arrays; also recorded: altered expression of the ERG target genes | ERG-driven cell invasion [3]: blocks ERG-mediated RWPE cell invasion; also recorded: significant reduction | COMET tail moments versus Olaparib treated ETS overexpressing cells (BRCA2 shRNA PC3 cells): slightly larger tail moments | tumor size (weight) on CAM (LNCaP): significantly smaller

Reference: patent US20120035244A1, “PARP1 TARGETED THERAPY” (THE REGENTS OF THE UNIVERSITY OF MICHIGAN, priority 2010, published 2012)
